The values below come from patent publication US20140357487A1, “PLANTS HAVING INCREASED TOLERANCE TO HERBICIDES” (BASF SE, priority 2011, published 2014).

Molecules are shown by their SMILES.

Experiment [1] addresses T1, Arabidopsis HPPD variant M335H, P336A (Arabidopsis thaliana, UniProt P93836, M335H/P336A).
T1 construct: PCR-based site directed mutagenesis of pEXP5-NT/TOPO®-AtHPPD is done; His6 (N); made in house; host or cells: E. coli BL21 (DE3)
As to the kind of experiment: HPPD activity assay, Arabidopsis HPPD mutant M335H, P336A. Format: biochemical. Particulars: normalized on Arabidopsis wild-type HPPD. As to the method:
HPPD produces homogentisic acid and CO2 from 4-hydroxyphenylpyruvate (4-HPP) and O2. The activity assay for HPPD is based on the analysis of homogentisic acid by reversed phase HPLC.
The assay mixture can contain 150 mM potassium phosphate buffer pH 7.0, 50 mM L-ascorbic acid, 1 μM FeSO4 and 7 μg of purified enzyme in a total volume of 1 ml.
Inhibitors are dissolved in DMSO (dimethylsulfoxide) to a concentration of 20 mM or 0.5 mM, respectively. From this stock solution serial five-fold dilutions are prepared in DMSO, which are used in the assay. The respective inhibitor solution accounts for 1% of the assay volume. […] After a preincubation of 30 min the reaction is started by adding 4-HPP to a final concentration of 0.1 mM. The reaction is allowed to proceed for 120 min at room temperature. The reaction is stopped by addition of 100 μl of 4.5 M phosphoric acid.
Activities are normalized by setting the uninhibited enzyme activity to 100%. IC50 values are calculated using non-linear regression.
The assay mixture can contain 150 mM potassium phosphate buffer pH 7.0, 50 mM L-ascorbic acid, 100 μM Catalase (Sigma-Aldrich), 1 μM FeSO4 and 0.2 units of purified HPPD enzyme in a total volume of 505 μl. 1 unit is defined as the amount of enzyme that is required to produce 1 nmol of HGA per minute at 20° C.
Inhibitors are dissolved in DMSO (dimethylsulfoxide) to a concentration of 0.5 mM. […] IC50 values are calculated using non-linear regression. […]
Purified, mutant HPPD enzymes are obtained by the methods described above. […] Apparent michaelis constants (Km) and maximal reaction velocities (Vmax) are calculated by non-linear regression with the software GraphPad Prism 5 (GraphPad Software, La Jolla, USA) using a substrate inhibition model.
Field performance of the optimized HPPD enzyme, which is used as a herbicide tolerance trait may depend not only on its lack of sensitivity towards HPPD inhibiting herbicides but also on its activity. To assess the potential performance of a herbicide tolerance trait a tolerance index (TI) is calculated using the following formula: […]

Experiment [2] deals with transgenic corn plants, Arabidopsis M335H, event SDM-71923. As to the kind of experiment: Greenhouse testing of transgenic corn plants, Arabidopsis M335H. The class given is in vivo, Zea mays. The following applies: corn SDM-71923, 5 days after herbicide treatment, average of 8 T1. An excerpt: (§1) Various methods for the production of stably transformed plants are well known in the art. Coumarone-derivative herbicide tolerant soybean (Glycine max) or corn (Zea mays) plants can be produced by a method described by Olhoft et al. (US patent 2009/0049567). Briefly, HPPD or HST encoding polynucleotides are cloned into a binary vector using standard cloning techniques as described by Sambrook et al. (Molecular cloning (2001) Cold Spring Harbor Laboratory Press). The final vector construct contains an HPPD or HST encoding sequence flanked by a promoter sequence (e.g. the ubiquitin promoter (PcUbi) sequence) and a terminator sequence (e.g. the nopaline synthase terminator (NOS) sequence) and a resistance marker gene cassette (e.g. AHAS) (FIG. 2). Optionally, the HPPD or HST gene can provide the means of selection. Agrobacterium-mediated transformation is used to introduce the DNA into soybean's axillary meristem cells at the primary node of seedling explants. After inoculation and co-cultivation with Agrobacteria, the explants are transferred to shoot induction medium without selection for one week. The explants are subsequently transferred to shoot induction medium with 1-3 μM imazapyr (Arsenal) for 3 weeks to select for transformed cells. Explants with healthy callus/shoot pads at the primary node are then transferred to shoot elongation medium containing 1-3 μM imazapyr until a shoot elongates or the explant dies. After regeneration, transformants are transplanted to soil in small pots, placed in growth chambers (16 hr day/8 hr night; 25° C. day/23° C. night; 65% relative humidity; 130-150 mE m−2 s−1) and subsequently tested for the presence of the T-DNA via Taqman analysis. After a few weeks, healthy, transgenic positive, single copy events are transplanted to larger pots and allowed to grow in the growth chamber. Transformation of corn plants is done by a method described by McElver and Singh (WO 2008/124495). Plant transformation vector constructs containing HPPD or HST sequences are introduced into maize immature embryos via Agrobacterium-mediated transformation. Transformed cells are selected in selection media supplemented with 0.5-1.5 μM imazethapyr for 3-4 weeks. Transgenic plantlets are regenerated on plant regeneration media and rooted afterwards. Transgenic plantlets are subjected to TaqMan analysis for the presence of the transgene before being transplanted to potting mixture and grown to maturity in greenhouse. Arabidopsis thaliana is transformed with HPPD or HST sequences by floral dip method as described by McElver and Singh (WO 2008/124495). Transgenic Arabidopsis plants are subjected to Tag Man analysis for analysis of the number of integration loci. Transformation of Oryza sativa (rice) are done by protoplast transformation as described by Peng et al. (U.S. Pat. No. 6,653,529)
(§2) Transgenic plants expressing heterologous HPPD or HST enzymes are tested for tolerance against coumarone-derivative herbicides in greenhouse experiments.
(§3) For post emergence treatment, the test plants are first grown to a height of 3 to 15 cm, depending on the plant habit, and only then treated with the herbicides. For this purpose, the test plants are either sown directly and grown in the same containers, or they are first grown separately and transplanted into the test containers a few days prior to treatment.
(§4) Depending on the species, the plants are kept at 10-25° C. or 20-35° C. The test period extends over 3 weeks. During this time, the plants are tended and their response to the individual treatments is evaluated. […] Tolerance to coumarone-derivative herbicides can also be assessed in Arabidopsis. In this case transgenic Arabidopsis thaliana plants are assayed for improved tolerance to coumarone-derivative herbicides in 48-well plates. Seeds are surface sterilized by stirring for 5 min in ethanol+water (70+30 by volume), rinsing one time with ethanol+water (70+30 by volume) and two times with a sterile, deionized water. […]

In experiment [3] the test system is transgenic soybean plants, Arabidopsis P336A E363Q I393L L385V, event SDS-9999. As to the kind of experiment: Greenhouse testing of transgenic soybean plants, Arabidopsis P336A E363Q I393L L385V. The class given is in vivo, Glycine max. The following applies: soybean SDS-9999, 5 days after herbicide treatment, average of 8 T1.
Text: as §1, §2, §3, §4

T1 sequence (P93836 whole entry M335H/P336A): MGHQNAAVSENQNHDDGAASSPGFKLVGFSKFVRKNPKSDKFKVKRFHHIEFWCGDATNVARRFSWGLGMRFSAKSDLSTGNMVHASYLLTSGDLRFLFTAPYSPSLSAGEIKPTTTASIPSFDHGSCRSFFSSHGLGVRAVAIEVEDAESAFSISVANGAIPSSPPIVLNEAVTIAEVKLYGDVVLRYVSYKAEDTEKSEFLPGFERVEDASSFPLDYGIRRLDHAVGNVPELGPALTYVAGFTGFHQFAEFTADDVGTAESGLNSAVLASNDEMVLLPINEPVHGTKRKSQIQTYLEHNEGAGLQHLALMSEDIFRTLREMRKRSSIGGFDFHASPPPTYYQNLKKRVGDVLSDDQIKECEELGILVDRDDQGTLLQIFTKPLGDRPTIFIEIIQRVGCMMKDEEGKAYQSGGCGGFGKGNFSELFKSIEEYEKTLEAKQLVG

As for `CC1=NOC(c2c(Cl)ccc(C3=C(O)c4ncccc4C(C)(C)S3(=O)=O)c2Cl)C1` (centres unmarked) [Inhibitor 1, 7-[2,4-dichloro-3-(3-methyl-4,5-dihydroisoxazol-5-yl)phenyl]-5,5-dimethyl-6,6-dioxo-thiopyrano[4,3-b]pyridin-8-ol], in experiment [1], the “Normalized tolerance index TI” value stood at 1.9.

`CC1(C)c2cccnc2C(O)=C(c2ccc(Cl)nc2Cl)S1(=O)=O` [Inhibitor 2, 7-(2,6-dichloro-3-pyridyl)-5,5-dimethyl-6,6-dioxo-thiopyrano[4,3-b]pyridin-8-ol]: the “Normalized tolerance index TI” value in experiment [1] turned out to be 2.8. Moreover, the “Injury evaluation, scale of 1-100, bleaching phenotype” value in experiment [2] (2.5 g/ha) was found to be 6; in experiment [2] (10 g/ha) it was 4; in experiment [2] (40 g/ha), 6; in experiment [3] (2.5 g/ha), 6; in experiment [3] (10 g/ha) it was 5; in experiment [3] (40 g/ha) it was 15.

As to `Cc1c(C(=O)c2cnn(C)c2O)ccc(S(C)(=O)=O)c1C1=NOCC1` [Topramezone, reference compound], the “Injury evaluation, scale of 1-100, bleaching phenotype” value in experiment [2] (6.25 g/ha) is 0; in experiment [2] (25 g/ha), 0; in experiment [2] (100 g/ha), 0; in experiment [3] (6.25 g/ha), 7; in experiment [3] (25 g/ha) it was 18; in experiment [3] (100 g/ha), 24.
